Reference: a melting point compilation (Tetko et al.; mined from patent text by program, amines drawn as free bases though some values may be those of a salt)

| melting point [°C] | Compound |
| --- | --- |
| 176 to 177 | O=C(O)COc1ccc(C(=C2SCCCS2)c2ccccc2)cc1 |
| 253 to 255 | O=C(O)CCC(=O)c1ccc(NC(=O)c2ccc(F)cc2)cc1 |
| 216 to 220 | CC(=O)NC[C@H]1CN(c2ccc(C(=O)c3cnc4cnc(Br)cn34)cc2)C(=O)O1 |
| 142 to 144 | COC(=O)C1=Cc2cc(-c3ccc(C(C)C)cc3)ccc2S(=O)(=O)CC1 |
| 219 to 221 | O=C(O)COc1cccc2c1CCc1sc(S(=O)(=O)C(c3ccccc3)c3ccccc3)nc1-2 |
| 284 | Cc1ccc(N2C(=O)C(O)=C(C(=O)c3ccc(C(C)C)cc3)C2c2ccc(-n3cncn3)cc2)nn1 (stereo not given) |
| 207 to 211 | CCCC(=O)Oc1ccc2nc(NC(=O)Nc3ccccc3)sc2c1 |
| 120 to 122 | CN1CC=C(c2cccc(C(F)(F)F)c2)n2ncc(C#N)c21 |
| 125 to 126 | C/C(=C\c1ccc(OC(C)C)cc1Oc1ncc(C(F)(F)F)cc1Cl)C(=O)NS(=O)(=O)NCC1CCCO1 (stereo not given) |
| 145 to 148 | COc1ccc(C=CCCCCOc2ccc(S(=O)(=O)c3cccc(C(=O)O)c3)cc2CCC(=O)O)cc1 |
| 126 to 128 | COC(=O)C=Cc1ccc2c(c1)cc(C)n2S(=O)(=O)c1ccccc1 |
| 90 to 92 | Cc1cc(Oc2ncc(C(F)(F)F)cc2Cl)nn1C(=O)OC(C)(C)C |
| 121 to 123 | Oc1cc2c(cc1CCCOc1ccc3ccccc3c1-c1nnn[nH]1)OC(CCc1ccccc1)C2 (stereo not given) |
| 185 to 187 | COC(=O)c1ccc(-c2nc(-c3ccc(C)cc3)cs2)cc1 |
| 269 to 271 | CCOc1ccc(-c2ccc3c(c2)C=C(C(=O)O)CCO3)cc1 |
| 123 to 125 | CN1CCN(c2cccc3c2C[C@H](N(C)C(=O)c2ccc(C(F)(F)F)cc2)CC3)CC1 |

| melting point [°C] | Compound |
| --- | --- |
| 91 to 93 | CCCCCCCCCCN(OCc1ccccc1)C(=O)Nc1c(C(C)C)cccc1C(C)C |
| 130 to 131 | CC(C)c1nn(-c2ccc(C(F)(F)F)cn2)cc1CCCCOc1ccc(CC(=O)O)cc1 |
| 244 to 245 | O=C(O)c1ccc2ccc(-c3ccccc3)cc2c1 |
| 158 to 160 | COc1ccc2c(n1)C1(CO2)C(=O)N(Cc2ccc(C(F)(F)F)o2)c2ccc(F)cc21 (stereo not given) |
| 115 to 116 | O=C(CCCC1CCN(Cc2ccccc2)CC1)c1ccc(N2CCCC2)cc1 |
| 88 | CC(=O)OCCCCN(C)CCCN(C)C(=O)[C@@H]1CCCN1S(=O)(=O)c1ccc(Cl)c(COc2cccc3c(-n4ccnc4)cc(C)nc23)c1Cl |
| 134 to 135 | O=C(O)C(OCOc1ccc(-c2ccc(Cl)cc2)cc1)(C(F)(F)F)C(F)(F)F |
| 123 to 124 | CCCc1c(OCCCCSc2nnc(SCC(=O)O)s2)ccc(C(C)=O)c1O |
| 154 to 156 | CCCCC(CC)C(=O)Nc1ccc(Oc2ccccc2)c2c(=O)c3ccccc3n(C)c12 (stereo not given) |
| 124 to 128 | O=C(c1ccc2c(c1)sc(=O)n2CCOc1ccc(CC(OCC(F)(F)F)C(=O)O)cc1)C1CC1 (stereo not given) |
| 127 to 129 | Cn1nc(-c2ccc(F)cc2)c(-c2ccncc2)c1NC(=O)Cc1ccc(O)cc1 |
| 150 to 151 | CC(C)COc1ccc(C(=O)N/C(=C\c2ccc(OCC(F)F)cc2)C(=O)NCCO)cc1 |
| 64 | COc1ccc(NC(C)c2ccccc2)cc1 (stereo not given) |
| 124 to 126 | COc1cc(N)c2nccc(C=Cc3cccc(C(F)(F)F)c3)c2c1 |
| 102 to 104 | O=S(=O)(Nc1cccc(CCOCc2ccc(-c3ccc(Cl)c(Cl)c3)cc2F)c1)C(F)(F)F |

The next lines start with the compound.

| Compound | melting point [°C] |
| --- | --- |
| CC1CC(c2ccccc2)(N(C)C)CCC1=O (stereo not given) | 50 |
| CCOC(=O)C1=C(C)Nc2c(c(C)nn2C)C1c1ccccc1[N+](=O)[O-] (stereo not given) | 194 to 198 |
| CCCCOC(=O)c1cc2cccc(OC)c2[nH]1 | 66 to 69 |
| O=S1(=O)NC(C2CCCCC2)Nc2ccc(-c3ccccc3F)cc21 (stereo not given) | 249 to 250 |
| CC1(c2ccc(F)cc2)NOCC1CN(O)C(N)=O (stereo not given) | 135 to 137 |
| O=C1CCCN1C(=O)Oc1cccc(Cl)c1 | 88 to 89 |
| O=S(=O)(c1ccc(F)cc1)c1ccc(S)cc1 | 116 |
| CC(C)N(C(=O)c1cccc2c1CCc1cc(F)ccc1S2)C(C)C | 149 to 150 |
| COC(=O)Cn1c(=S)sc2ccccc21 | 127 to 128 |
| CC(C)C(=O)O[C@H]1[C@H](C)OC(=O)[C@@H](NC(=O)OC(C)(C)C)COC(=O)[C@@H]1CC(=O)O | 164 to 167 |
| COC(=O)c1cnnn1C1OC(COC(=O)c2ccccc2)C(OC(=O)c2ccccc2)C1OC(=O)c1ccccc1 (stereo not given) | 86 to 88 |
| CCOC(=O)c1cnc2scc(C)n12 | 45 |
| Cn1c(SCCCN2CCc3ccc(NS(C)(=O)=O)cc3C2)nnc1-c1ccccc1 | 90 |
| CC(=O)NC1(c2ccc(C(C)Cl)cc2)CC1 (stereo not given) | 104 to 107 |
| CC1Cc2cccc(S(N)(=O)=O)c2O1 (stereo not given) | 174 to 177 |
| CCCc1c(C(=O)C(C)C)c2ccc(CC(N)=O)cc2n1Cc1ccccc1Cl | 146 to 148 |
| COc1cc(C#N)c2c(c1OC)C(=O)CC2 | 150 |
| O=P(O)(O)C1=CCCCC1 | 128 |
| Cc1ccccc1C(=O)Nc1ccc(C(=O)N2CCCC(C)(O)c3ccccc32)cc1 (stereo not given) | 204 to 205 |
| O=C1CSCc2cc(-c3ccccc3)ccc21 | 87 to 89 |
| COC(=O)CC1NC(=O)c2ccccc21 (stereo not given) | 136 to 138 |
| CN(C)CCc1ccc(O)c2c1=NS(=O)(=O)N=2 | 202 to 205 |
| COc1cc2nc(N3CCN(C(=O)CC(O)c4ccccc4)CC3)nc(N)c2cc1OC (stereo not given) | 222 |

| Compound | melting point [°C] |
| --- | --- |
| Cn1cc2c(C=O)c(Br)ccc2n1 | 137 to 140 |
| O=C1c2ccc(N=CN3CCCCC3)cc2C(=O)c2ccc(N=CN3CCCCC3)cc21 | 229 to 233 |
| N#Cc1cccc2c1CCc1ccsc1-2 | 74.5 to 75 |
| C=C(CCl)COc1ccc(C(=O)OC)cc1CS(=O)(=O)c1ccccc1 | 92 to 93 |
| COC(=O)CN(CC(F)(F)F)c1ccc(C#N)c(C(F)(F)F)c1 | 144 to 145 |
| CC(=O)c1[nH]c(-c2ccc(O)cc2)nc1C | 300 |
| CC(C)(C)OC(=O)N1C(=O)[C@H](O)[C@@H]1C=Cc1ccccc1 | 132 to 133 |
| Fc1cc(F)c(-c2c(Cl)nc(-n3ccnc3)nc2NCC(F)(F)F)c(F)c1 | 168 to 170 |
| O=C(NCc1cccs1)c1ccc(Cl)cc1 | 153 to 154 |
| COc1ccc(-n2cccc2)c(N)c1 | 42 to 43 |
| Nc1cccc(Cn2c(-c3ccc(Nc4cncnc4)cc3)ccc2-c2ccccc2Cl)n1 | 88 to 90 |
| [N-]=[N+]=C1C(=O)CC2CCCCC2C1=O (stereo not given) | 81 to 83 |
| COc1cc2c(cc1S(=O)(=O)Cl)CCC2 | 75 to 77 |
| COC=CC(C)(C)C(=O)Nc1ccc(Cl)cc1 | 93 |
| COC(=O)C(NC(=O)c1ccc(Cl)cc1)C(=O)OC | 146 to 148 |
| CCCCCCCC(=O)Nc1ccc(OCC(O)CNC(C)C)c(C#N)c1 (stereo not given) | 116 to 118 |
| CN(c1cccc2cc(C(N)=O)[nH]c12)S(=O)(=O)c1cccs1 | 244 to 245 |
| CCOC(=O)c1cn(C2CC2)c2cc(C3CCN(C(C)=O)CC3)c(F)cc2c1=O | 195 to 201 |
| Cc1cc(C(C)(C)C)c(O)c(C)c1COC(=O)c1cccc(C(=O)OCc2c(C)cc(C(C)(C)C)c(O)c2C)c1 | 155 to 156 |
| CON(C)C(=S)Nc1ccc(OCCc2ccccc2)c(Cl)c1 | 116 to 117 |
| O=c1c2ccccc2nc2n1CCc1c-2[nH]c2ccc(F)cc12 | 290 |
| CC(C)C1(C)N=C(c2c(C(=O)O)ccc3c2nnn3C)NC1=O (stereo not given) | 250 to 254 |
| NC(=O)c1cc2ccccc2nc1N | 240 to 242 |

| Compound | melting point [°C] |
| --- | --- |
| c1cncc(C2CCCCC2)c1 | 78 to 80 |
| Nc1cccc(-c2ccc(-c3ccccc3)cc2)c1N | 203 to 206 |
| C=C(NC(=O)OC(C)(C)C)C(=O)OCc1ccc([N+](=O)[O-])cc1 | 94 to 95 |
| CC(C)N[C@H](C(=O)O)C(C)C | > 300 |
| CCCCCCCCCCCCN1CN=C(NC(=O)Nc2c(C(C)C)cccc2C(C)C)N1 | 128 to 140 |
| O=C(Nc1ccccc1)C1C(=O)Sc2ccccc21 (stereo not given) | 140 to 142 |
| CC(=O)OC1CSC(Oc2cccc(-c3ccc(C)o3)c2)C(OC(C)=O)C1OC(C)=O (stereo not given) | 132 |
| Cc1cc(Cl)cc(C(=O)NC(C)C2CC2)c1NC(=O)c1cc(Br)nn1-c1ncccc1Cl (stereo not given) | 182 to 183 |
| CCNC(=O)c1c(C)cccc1C(C)(C)C | 110 to 112 |
| Cc1cc(NS(=O)(=O)c2ccc(NCNc3ccc(S(=O)(=O)Nc4cc(C)on4)cc3)cc2)no1 | 180 to 188 |
| Cc1nnc2n1-c1sc(C(N)=O)cc1C(c1ccccc1Cl)=NC2 | 230 to 232 |
| CC(C)C[C@H](NC(=O)OCC1CCCCC1)C(=O)NC(C)(C)C(=O)c1c(-c2ccccc2)c1=O | 42 to 49 |
| CCN1CCN(Cc2cc(C)c3c(c2)-c2[nH]nc(-c4ccsc4)c2C3)CC1 | 230 to 231 |
| O=Cc1c(Cl)ncnc1Cl | 65 to 66 |
| Cc1cccc(C)c1C(=Nc1ccc(F)cc1)NC(=NC1CCCCC1)N1CCCCC1C (stereo not given) | 167 to 168 |
| CCOc1cc(C(=O)N2CCc3cc(O)ccc3C2)cc(OCC)c1OCC | 158 |
| COC(=O)C12Cc3cc(Cl)ccc3C1=NNCO2 (stereo not given) | 124 to 127 |
| O=C(Nc1ccc(OC(F)(F)F)cc1)NC1CCNCC1 | 169 to 173 |
| COCCN(C)C(=O)c1cc2c(nc(C)n2C)c2c1CCC1(Cc3ccccc3C1)N2 | 160 to 161 |
| OCCOCCn1c2ccccc2c2ccccc21 | 80 to 81 |
| O=C1CN(c2nccnc2[N+](=O)[O-])CCN1 | 178 to 179 |
| COc1ccc(C)cc1NC(=O)Nc1ccc(N2CCN(C(=O)Oc3ccccc3)CC2)cc1 | 179 |
| COc1ccc(N(C)c2nc(N)nc3[nH]c4cccc(Cl)c4c23)cc1 | 163 to 164 |
